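Step 1: Grow cells in 96-well plates. Step 2: Expose to compound for 48 hours at 5 concentrations. Step 3: Interpolate endpoints linearly; if unreached, use highest concentration. GI50: concentration for 50% inhibition of growth.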 Active and inactive are the calls of the source. Cut-off read from the data, not from the text of the source: active = GI50 up to about 1.1 µM and inactive = higher.
Key:
Assay in all cases: NCI-60 cell line screen, 48 h
786-0 = tested on: 786-0
A498 = tested on: A498
A549 = tested on: A549
ACHN = tested on: ACHN
CAKI-1 = tested on: CAKI-1
CCRF-CEM = tested on: CCRF-CEM
COLO 205 = tested on: COLO 205
DLD-1 = tested on: DLD-1
DMS-273 = tested on: DMS-273
EKVX = tested on: EKVX
HCC 2998 = tested on: HCC 2998
HCT-116 = tested on: HCT-116
HCT-15 = tested on: HCT-15
HL-60 = tested on: HL-60
HOP-18 = tested on: HOP-18
HOP-62 = tested on: HOP-62
HT-29 = tested on: HT-29
IGROV-1 = tested on: IGROV-1
K562 = tested on: K562
KM-20L2 = tested on: KM-20L2
LOX IMVI = tested on: LOX IMVI
LXFL 529 = tested on: LXFL 529
M14 = tested on: M14
M19-MEL = tested on: M19-MEL
MOLT-4 = tested on: MOLT-4
NCI-H23 = tested on: NCI-H23
NCI-H460 = tested on: NCI-H460
OVCAR-3 = tested on: OVCAR-3
OVCAR-4 = tested on: OVCAR-4
OVCAR-8 = tested on: OVCAR-8
RPMI-8226 = tested on: RPMI-8226
RXF 393 = tested on: RXF 393
SF-295 = tested on: SF-295
SF-539 = tested on: SF-539
SK-MEL-28 = tested on: SK-MEL-28
SK-MEL-5 = tested on: SK-MEL-5
SK-OV-3 = tested on: SK-OV-3
SN12C = tested on: SN12C
SNB-19 = tested on: SNB-19
SNB-75 = tested on: SNB-75
SW-620 = tested on: SW-620
TK-10 = tested on: TK-10
U-251 = tested on: U-251
UACC-257 = tested on: UACC-257
UACC-62 = tested on: UACC-62
XF498 = tested on: XF498
HOP-92 = tested on: HOP-92
KM12 = tested on: KM12
MCF7 = tested on: MCF7
Malme-3M = tested on: Malme-3M
NCI-H226 = tested on: NCI-H226
NCI-H522 = tested on: NCI-H522
NCI/ADR-RES = tested on: NCI/ADR-RES
OVCAR-5 = tested on: OVCAR-5
SF-268 = tested on: SF-268
SK-MEL-2 = tested on: SK-MEL-2
SNB-78 = tested on: SNB-78
UO-31 = tested on: UO-31

SMILES: CC(C)(C)c1cc(COc2c3sc(=S)sc3c(OCc3cc(C(C)(C)C)cc(C(C)(C)C)c3)c3sc(=S)sc23)cc(C(C)(C)C)c1
- GI50 (786-0): > 100 µM (inactive)
- GI50 (A498): > 100 µM (inactive)
- GI50 (A549): > 100 µM (inactive)
- GI50 (ACHN): > 100 µM (inactive)
- GI50 (CAKI-1): > 100 µM (inactive)
- GI50 (CCRF-CEM): > 100 µM (inactive)
- GI50 (COLO 205): > 100 µM (inactive)
- GI50 (DLD-1): > 100 µM (inactive)
- GI50 (DMS-273): > 100 µM (inactive)
- GI50 (EKVX): > 100 µM (inactive)
- GI50 (HCC 2998): > 100 µM (inactive)
- GI50 (HCT-116): > 100 µM (inactive)
- GI50 (HCT-15): > 100 µM
- GI50 (HL-60): > 100 µM (inactive)
- GI50 (HOP-18): > 100 µM (inactive)
- GI50 (HOP-62): > 100 µM (inactive)
- GI50 (HT-29): > 100 µM (inactive)
- GI50 (IGROV-1): > 100 µM (inactive)
- GI50 (K562): > 100 µM (inactive)
- GI50 (KM-20L2): > 100 µM (inactive)
- GI50 (LOX IMVI): > 100 µM (inactive)
- GI50 (LXFL 529): > 100 µM (inactive)
- GI50 (M14): > 100 µM (inactive)
- GI50 (M19-MEL): > 100 µM (inactive)
- GI50 (MOLT-4): > 100 µM (inactive)
- GI50 (NCI-H23): > 100 µM (inactive)
- GI50 (NCI-H460): > 100 µM (inactive)
- GI50 (OVCAR-3): > 100 µM (inactive)
- GI50 (OVCAR-4): > 100 µM (inactive)
- GI50 (OVCAR-8): > 100 µM (inactive)
- GI50 (RPMI-8226): > 100 µM (inactive)
- GI50 (RXF 393): > 100 µM (inactive)
- GI50 (SF-295): > 100 µM (inactive)
- GI50 (SF-539): > 100 µM (inactive)
- GI50 (SK-MEL-28): > 100 µM (inactive)
- GI50 (SK-MEL-5): > 100 µM (inactive)
- GI50 (SK-OV-3): > 100 µM (inactive)
- GI50 (SN12C): > 100 µM (inactive)
- GI50 (SNB-19): > 100 µM (inactive)
- GI50 (SNB-75): > 100 µM (inactive)
- GI50 (SW-620): > 100 µM (inactive)
- GI50 (TK-10): > 100 µM (inactive)
- GI50 (U-251): > 100 µM (inactive)
- GI50 (UACC-257): > 100 µM (inactive)
- GI50 (UACC-62): > 100 µM (inactive)
- GI50 (XF498): > 100 µM (inactive)

SMILES: CSc1nc(NC2OCC(O)C(O)C2O)c(N)c(=O)n1C (configuration not stated)
- GI50 (A498): > 100 µM (inactive)
- GI50 (A549): > 100 µM (inactive)
- GI50 (CCRF-CEM): > 100 µM (inactive)
- GI50 (COLO 205): > 100 µM (inactive)
- GI50 (DLD-1): > 100 µM (inactive)
- GI50 (DMS-273): > 100 µM (inactive)
- GI50 (EKVX): > 100 µM (inactive)
- GI50 (HCC 2998): > 100 µM (inactive)
- GI50 (HCT-116): > 100 µM (inactive)
- GI50 (HCT-15): > 100 µM
- GI50 (HL-60): > 100 µM (inactive)
- GI50 (HOP-18): > 100 µM (inactive)
- GI50 (HOP-62): > 100 µM (inactive)
- GI50 (HOP-92): > 100 µM (inactive)
- GI50 (HT-29): > 100 µM (inactive)
- GI50 (IGROV-1): > 100 µM (inactive)
- GI50 (K562): > 100 µM (inactive)
- GI50 (KM-20L2): > 100 µM (inactive)
- GI50 (KM12): > 100 µM (inactive)
- GI50 (LOX IMVI): > 100 µM (inactive)
- GI50 (MCF7): > 100 µM (inactive)
- GI50 (MOLT-4): > 100 µM (inactive)
- GI50 (Malme-3M): > 100 µM (inactive)
- GI50 (NCI-H226): > 100 µM (inactive)
- GI50 (NCI-H23): > 100 µM (inactive)
- GI50 (NCI-H460): > 100 µM (inactive)
- GI50 (NCI-H522): > 100 µM (inactive)
- GI50 (NCI/ADR-RES): > 100 µM (inactive)
- GI50 (OVCAR-3): > 100 µM (inactive)
- GI50 (OVCAR-4): > 100 µM (inactive)
- GI50 (OVCAR-5): > 100 µM (inactive)
- GI50 (OVCAR-8): > 100 µM (inactive)
- GI50 (RPMI-8226): > 100 µM (inactive)
- GI50 (RXF 393): > 100 µM (inactive)
- GI50 (SF-268): > 100 µM (inactive)
- GI50 (SF-295): > 100 µM (inactive)
- GI50 (SF-539): 75.2 µM (inactive)
- GI50 (SK-MEL-28): > 100 µM (inactive)
- GI50 (SK-MEL-2): > 100 µM (inactive)
- GI50 (SK-MEL-5): > 100 µM (inactive)
- GI50 (SK-OV-3): > 100 µM (inactive)
- GI50 (SN12C): > 100 µM (inactive)
- GI50 (SNB-19): > 100 µM (inactive)
- GI50 (SNB-75): 51.6 µM (inactive)
- GI50 (SNB-78): > 100 µM (inactive)
- GI50 (SW-620): > 100 µM (inactive)
- GI50 (U-251): > 100 µM (inactive)
- GI50 (UACC-257): > 100 µM (inactive)
- GI50 (UACC-62): > 100 µM (inactive)
- GI50 (UO-31): > 85.5 µM (inactive)
- GI50 (XF498): > 100 µM (inactive)

Reference: ChEMBL document CHEMBL1201862, “PubChem BioAssay data set” (2004)
